Data as given in US20030003488A1, “Regulation of human mitochondrial deformylase” (priority 1999, published 2003).

tested on: human mitochondrial deformylase; test: Expression of mitochondrial deformylase by Western blotting in antisense-treated HCT 116 cells; type: cell-based; conditions: 10 micromolar once per day for seven days

Substance	expression of the mitochondrial deformylase as determined by Western blotting
5′-AAAATGCAGGTAAGCATGTGAAAA-3′ [oligonucleotide (2)]	significantly reduced expression
5′-CAGCGATTTAAATACGGAACAAGG-3′ [oligonucleotide (1)]	significantly reduced expression
5′-TCAACTGACTAGATGTACATGGAC-3′ (DNA TCAACTGACTAGATGTACATGGAC; chemistry not given here) [oligonucleotide (3), reference compound]	not observed
